Reference: patent publication US20020026051A1, “Dithiepino [6,5-b]pyridines, and related compositions and methods” (priority 1999, published 2002)

Each molecule was assayed against T1, calcium channel (Oryctolagus cuniculus, UniProt P15381) (assay: Assay for Inhibition of Nitrendipine Binding (3H-nitrendipine, heart membranes)). Conditions: 3H-nitrendipine displacement, rabbit heart membranes; Tables 1-5.
T1 construct: from tissue; host or cells: rabbit heart membrane preparation
T1 sequence (P15381 whole entry, other chains not shown): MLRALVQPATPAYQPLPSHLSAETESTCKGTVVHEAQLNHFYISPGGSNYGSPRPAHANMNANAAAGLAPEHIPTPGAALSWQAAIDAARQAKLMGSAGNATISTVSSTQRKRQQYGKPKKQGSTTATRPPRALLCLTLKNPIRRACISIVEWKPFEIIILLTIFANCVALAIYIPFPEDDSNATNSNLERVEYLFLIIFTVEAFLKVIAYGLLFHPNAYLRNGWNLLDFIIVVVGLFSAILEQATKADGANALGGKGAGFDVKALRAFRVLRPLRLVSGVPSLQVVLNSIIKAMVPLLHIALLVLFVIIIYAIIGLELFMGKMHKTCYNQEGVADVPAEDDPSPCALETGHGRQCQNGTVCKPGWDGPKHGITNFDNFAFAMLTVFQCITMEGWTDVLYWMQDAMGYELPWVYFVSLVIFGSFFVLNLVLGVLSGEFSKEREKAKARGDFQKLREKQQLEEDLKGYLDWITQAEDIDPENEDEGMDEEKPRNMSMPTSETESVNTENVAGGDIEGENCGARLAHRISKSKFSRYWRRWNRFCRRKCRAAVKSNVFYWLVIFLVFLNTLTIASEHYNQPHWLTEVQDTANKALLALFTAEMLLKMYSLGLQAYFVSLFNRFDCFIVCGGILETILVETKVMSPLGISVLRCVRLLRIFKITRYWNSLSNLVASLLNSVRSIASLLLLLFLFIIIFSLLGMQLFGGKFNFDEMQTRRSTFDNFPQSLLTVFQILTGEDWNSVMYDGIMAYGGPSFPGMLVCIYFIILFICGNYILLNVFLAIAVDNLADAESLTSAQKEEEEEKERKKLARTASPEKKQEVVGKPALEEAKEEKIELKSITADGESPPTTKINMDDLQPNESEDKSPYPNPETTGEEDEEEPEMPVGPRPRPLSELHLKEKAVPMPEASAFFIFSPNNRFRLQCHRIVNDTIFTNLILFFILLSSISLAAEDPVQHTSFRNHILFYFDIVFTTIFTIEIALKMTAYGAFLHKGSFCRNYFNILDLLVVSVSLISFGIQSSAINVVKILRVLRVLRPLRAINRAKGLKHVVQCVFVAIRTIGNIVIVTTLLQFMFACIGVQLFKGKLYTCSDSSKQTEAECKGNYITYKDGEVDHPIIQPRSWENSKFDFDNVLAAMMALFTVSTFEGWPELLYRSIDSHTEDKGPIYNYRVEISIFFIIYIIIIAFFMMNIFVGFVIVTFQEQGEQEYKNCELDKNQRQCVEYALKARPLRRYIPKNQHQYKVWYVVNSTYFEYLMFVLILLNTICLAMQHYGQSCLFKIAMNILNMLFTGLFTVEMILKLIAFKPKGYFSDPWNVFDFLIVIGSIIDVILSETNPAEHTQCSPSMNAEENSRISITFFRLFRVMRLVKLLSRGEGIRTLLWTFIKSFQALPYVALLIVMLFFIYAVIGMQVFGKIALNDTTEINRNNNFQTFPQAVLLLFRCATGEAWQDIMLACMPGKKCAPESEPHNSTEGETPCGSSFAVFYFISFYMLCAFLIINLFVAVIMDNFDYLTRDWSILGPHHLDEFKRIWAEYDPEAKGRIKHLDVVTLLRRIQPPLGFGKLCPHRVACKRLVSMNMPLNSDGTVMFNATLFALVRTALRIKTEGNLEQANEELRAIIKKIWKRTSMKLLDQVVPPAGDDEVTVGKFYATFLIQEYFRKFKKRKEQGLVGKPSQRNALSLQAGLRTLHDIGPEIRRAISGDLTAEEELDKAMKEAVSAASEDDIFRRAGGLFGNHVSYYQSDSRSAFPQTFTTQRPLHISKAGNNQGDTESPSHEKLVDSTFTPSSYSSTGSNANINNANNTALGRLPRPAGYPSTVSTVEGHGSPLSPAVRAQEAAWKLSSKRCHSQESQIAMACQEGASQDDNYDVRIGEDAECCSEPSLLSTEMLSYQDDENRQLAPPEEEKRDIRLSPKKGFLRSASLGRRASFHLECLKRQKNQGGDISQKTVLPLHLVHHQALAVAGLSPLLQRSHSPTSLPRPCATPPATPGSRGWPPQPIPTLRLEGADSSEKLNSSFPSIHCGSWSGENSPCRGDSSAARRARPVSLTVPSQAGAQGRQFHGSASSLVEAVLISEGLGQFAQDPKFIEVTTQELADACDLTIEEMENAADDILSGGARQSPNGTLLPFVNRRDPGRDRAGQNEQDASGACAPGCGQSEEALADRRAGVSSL
T1 sequence (P13806 27-960 partner limits assumed, other chains not shown): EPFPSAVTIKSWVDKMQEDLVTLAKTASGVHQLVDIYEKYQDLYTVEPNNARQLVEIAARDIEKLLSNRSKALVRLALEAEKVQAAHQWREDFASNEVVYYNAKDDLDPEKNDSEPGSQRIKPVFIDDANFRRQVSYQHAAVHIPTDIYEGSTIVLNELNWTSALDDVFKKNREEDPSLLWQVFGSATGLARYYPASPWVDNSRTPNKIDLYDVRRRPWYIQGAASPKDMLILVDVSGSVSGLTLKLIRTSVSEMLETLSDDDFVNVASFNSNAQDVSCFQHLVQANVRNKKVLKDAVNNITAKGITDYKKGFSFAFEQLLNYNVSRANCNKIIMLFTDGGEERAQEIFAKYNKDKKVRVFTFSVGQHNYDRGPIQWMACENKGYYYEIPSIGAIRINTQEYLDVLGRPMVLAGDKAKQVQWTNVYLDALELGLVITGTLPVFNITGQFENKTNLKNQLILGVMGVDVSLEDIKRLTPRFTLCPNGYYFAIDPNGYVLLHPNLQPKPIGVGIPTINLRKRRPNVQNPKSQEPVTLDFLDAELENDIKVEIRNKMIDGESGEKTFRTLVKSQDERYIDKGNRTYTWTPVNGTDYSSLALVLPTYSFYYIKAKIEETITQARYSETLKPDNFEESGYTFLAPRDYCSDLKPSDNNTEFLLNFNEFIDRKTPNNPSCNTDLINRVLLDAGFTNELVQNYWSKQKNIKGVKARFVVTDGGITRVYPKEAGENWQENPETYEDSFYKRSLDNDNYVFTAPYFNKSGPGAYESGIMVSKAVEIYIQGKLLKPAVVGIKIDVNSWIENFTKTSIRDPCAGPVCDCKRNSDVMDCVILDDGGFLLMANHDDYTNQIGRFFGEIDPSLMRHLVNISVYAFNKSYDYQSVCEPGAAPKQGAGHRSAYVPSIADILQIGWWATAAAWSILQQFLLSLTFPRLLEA
T1 sequence (P13806 961-1106 partner limits assumed, other chains not shown): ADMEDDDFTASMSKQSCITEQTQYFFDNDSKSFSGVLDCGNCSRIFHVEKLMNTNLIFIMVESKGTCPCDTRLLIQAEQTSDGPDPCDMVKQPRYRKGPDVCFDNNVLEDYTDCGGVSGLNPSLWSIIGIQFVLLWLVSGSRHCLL
Procedure: Female, New Zealand white rabbits (1-2 kg) are sacrificed by cervical dislocation, and the heart is immediately removed, cleaned and chopped into small pieces. The tissue is homogenized in 5× times volume of 0.05M Hepes buffer, pH 7.4. The homogenate is centrifuged at 4000 g for 10 minutes, and the supernatant is re-centrifuged at 42,000×g for 90 minutes. The resulting membrane pellet is resuspended (0.7 ml/g weight) in 0.05M Hepes, pH 7.4 and stored at […] until used. Each tube of the binding assay contains ^3H-nitrendipine (0.05-0.50 nM), buffer, membranes (0.10 ml), and test compound in a total volume of 1.0 ml. After 90 minutes at 4° C., the bound nitrendipine is separated from the unbound by filtration on Whatman GF/C filters. After rinsing, the filters are dried and counted in a liquid scintillation counter.
Non-specific binding of ^3H-nitrendipine (that amount bound in the presence of excess unlabelled nitrendipine) is subtracted from the total bound to obtain specifically bound radiolabeled nitrendipine. The amount of specifically bound nitrendipine in the presence of a test compound is compared to that amount bound in the absence of a compound. A percent displacement (or inhibition) can then be calculated.
With `COC(=O)C1=C(C)NC2=C(C1c1c(F)cccc1Cl)S(=O)(=O)CCS(=O)(=O)C2` (stereo not drawn) [Compound 11, 5H-1,4-Dithiepino[6,5-b]pyridine-8-carboxylic acid, 9-(2-chloro-6-fluorophenyl)-2,3,6,9-tetrahydro-7-methyl-methyl ester 1,1,4,4-tetraoxide] the IC50 was 91 nM.
In the case of `COC(=O)C1=C(C)NC2=C(C1c1ccccc1F)S(=O)(=O)CCS(=O)(=O)C2` (stereo not drawn) [Compound 16, 5H-1,4-Dithiepino[6,5-b]pyridine-8-carboxylic acid, 9-(2-fluorophenyl)-2,3,6,9-tetrahydro-7-methyl-methyl ester 1,1,4,4-tetraoxide], the IC50 is reported as 265 nM.
In the case of `COC(=O)C1=C(C)NC2=C(C1c1cccc(C(F)(F)F)c1F)S(=O)(=O)CC(CO)S(=O)(=O)C2` (stereo not drawn) [Compound 22, 5H-1,4-Dithiepino[6,5-b]pyridine-8-carboxylic acid, 9-[2-fluoro-3-(trifluoromethyl)phenyl]-2,3,6,9-tetrahydro-3-(hydroxymethyl)-7-methyl-methyl ester 1,1,4,4-tetraoxide], the IC50 is reported as 193 nM.
In the case of `COC(=O)C1=C(C)NC2=C(C1c1c(F)cccc1F)S(=O)(=O)CCS(=O)(=O)C2` (stereo not drawn) [Compound 14, 5H-1,4-Dithiepino[6,5-b]pyridine-8-carboxylic acid, 9-(2,6-difluorophenyl)-2,3,6,9-tetrahydro-7-methyl-methyl ester 1,1,4,4-tetraoxide], the IC50 is reported as 259 nM.
`CC1=C(C(=O)OCCN(C)Cc2ccccc2)C(c2cccc([N+](=O)[O-])c2)C2=C(CS(=O)(=O)CCS2(=O)=O)N1` (stereo not drawn) [Compound 8, 5H-1,4-Dithiepino[6,5-b]pyridine-8-carboxylic acid, 2,3,6,9-tetrahydro-7-methyl-9-(3-nitrophenyl)-2-[methyl(phenylmethyl)amino]ethyl ester 1,1,4,4-tetraoxide] gave an IC50 of 43 nM.
Molecule `CC1=C(C(=O)OCCN(C)Cc2ccccc2)C(c2ccccc2Cl)C2=C(CS(=O)(=O)CCS2(=O)=O)N1` (stereo not drawn) [Compound 6, 5H-1,4-Dithiepino[6,5-b]pyridine-8-carboxylic acid, 9-(2-chlorophenyl)-2,3,6,9-tetrahydro-7-methyl-2-[methyl(phenylmethyl)amino]ethyl ester 1,1,4,4-tetraoxide] has an IC50 of 45 nM.
`CC1=C(C(=O)OCCN(C)Cc2ccccc2)C(c2cccc(C(F)(F)F)c2F)C2=C(CS(=O)(=O)CS2(=O)=O)N1` (stereo not drawn) [Compound 31, 4H-1,3-Dithiino[5,4-b]pyridine-7-carboxylic acid, 8-[2-fluoro-3-(trifluoromethyl)phenyl]-5,8-dihydro-6-methyl-2-[methyl(phenylmethyl)amino]ethyl ester 1,1,3,3-tetraoxide] was tested, and the IC50 was 28 nM.
With `CC1=C(C(=O)OCCN(C)Cc2ccccc2)C(c2cccc([N+](=O)[O-])c2)C2=C(CS(=O)(=O)CCCS2(=O)=O)N1` (stereo not drawn) [Compound 25, 2H,6H-1,5-Dithiocino[3,2-b]pyridine-9-carboxylic acid, 3,4,7,10-tetrahydro-8-methyl-10-(3-nitrophenyl)-2-[methyl(phenylmethyl)amino]ethyl ester 1,1,5,5-tetraoxide] the IC50 was 10 nM.
`CC1=C(C(=O)OCCN(C)Cc2ccccc2)C(c2cccc(C(F)(F)F)c2F)C2=C(CS(=O)(=O)C(CO)CS2(=O)=O)N1` (stereo not drawn) [Compound 23, 5H-1,4-Dithiepino[6,5-b]pyridine-8-carboxylic acid, 9-[2-fluoro-3-(trifluoromethyl)phenyl]-2,3,6,9-tetrahydro-3-(hydroxymethyl)-7-methyl-2-[methyl(phenylmethyl)amino]ethyl ester 1,1,4,4-tetraoxide] showed an IC50 of 215 nM.
In the case of `C=C1CS(=O)(=O)C2=C(CS1(=O)=O)NC(C)=C(C(=O)OCCN(C)Cc1ccccc1)C2c1cccc(C(F)(F)F)c1F` (stereo not drawn) [Compound 21, 5H-1,4-Dithiepino[6,5-b]pyridine-8-carboxylic acid, 9-[2-fluoro-3-(trifluoromethyl)phenyl]-2,3,6,9-tetrahydro-7-methyl-3-methylene-2-[methyl(phenylmethyl)amino]ethyl ester 1,1,4,4-tetraoxide], the IC50 is reported as 38 nM.
`CC1=C(C(=O)OCCN(C)Cc2ccccc2)C(c2cccc([N+](=O)[O-])c2)C2=C(CS(=O)(=O)C(CO)CS2(=O)=O)N1` (stereo not drawn) [Compound 24, 5H-1,4-Dithiepino[6,5-b]pyridine-8-carboxylic acid, 2,3,6,9-tetrahydro-3-(hydroxymethyl)-7-methyl-9-(3-nitrophenyl)-2-[methyl(phenylmethyl)amino]ethyl ester 1,1,4,4-tetraoxide] gave an IC50 of 337 nM.
Molecule `CC1=C(C(=O)OCCN(C)Cc2ccccc2)C(c2c(F)cccc2C(F)(F)F)C2=C(CS(=O)(=O)CCS2(=O)=O)N1` (stereo not drawn) [Compound 5, 5H-1,4-Dithiepino[6,5-b]pyridine-8-carboxylic acid, 9-[2-fluoro-6-(trifluoromethyl)phenyl]-2,3,6,9-tetrahydro-7-methyl-2-[methyl(phenylmethyl)amino]ethyl ester 1,1,4,4-tetraoxide] has an IC50 of 12 nM.

Same assay, conditions: 3H-nitrendipine displacement, rabbit heart membranes; Tables 6-7
`CC1=C(C(=O)OCCOC(=O)CN(C)C(=O)c2ccccc2)C(c2c(F)cccc2Cl)C2=C(CS(=O)(=O)CCS2(=O)=O)N1` (stereo not drawn) [Compound 58] was tested, and the IC50 was 153 nM.
Molecule `CC1=C(C(=O)OCCOC(=O)CNC(=O)OC(C)(C)C)C(c2c(F)cccc2Cl)C2=C(CS(=O)(=O)CCS2(=O)=O)N1` (stereo not drawn) [Compound 81] has an IC50 of 946 nM.
`CC(=O)OCCCOC(=O)C1=C(C)NC2=C(C1c1c(F)cccc1Cl)S(=O)(=O)CCS(=O)(=O)C2` (stereo not drawn) [Compound 86] was tested, and the IC50 was 2120 nM.
In the case of `CC1=C(C(=O)OCC(=O)OCc2ccccc2)C(c2c(F)cccc2Cl)C2=C(CS(=O)(=O)CCS2(=O)=O)N1` (stereo not drawn) [Compound 66], the IC50 is reported as 279 nM.
`CC1=C(C(=O)OCc2oc(=O)oc2C)C(c2c(F)cccc2Cl)C2=C(CS(=O)(=O)CCS2(=O)=O)N1` (stereo not drawn) [Compound 73] gave an IC50 of 417 nM.
`CC1=C(C(=O)OCCOC(=O)C(C)(C)C)C(c2c(F)cccc2Cl)C2=C(CS(=O)(=O)CCS2(=O)=O)N1` (stereo not drawn) [Compound 89] was tested, and the IC50 was 3700 nM.
In the case of `CC1=C(C(=O)OCCOC(=O)CN(C)C)C(c2c(F)cccc2Cl)C2=C(CS(=O)(=O)CCS2(=O)=O)N1` (stereo not drawn) [Compound 84], the IC50 is reported as 1230 nM.
`CC1=C(C(=O)OCCOC(=O)CCC(C)C)C(c2c(F)cccc2Cl)C2=C(CS(=O)(=O)CCS2(=O)=O)N1` (stereo not drawn) [Compound 36] was tested, and the IC50 was 20 nM.
Work on `CCN(CC)C(=O)COC(=O)C1=C(C)NC2=C(C1c1c(F)cccc1Cl)S(=O)(=O)CCS(=O)(=O)C2` (stereo not drawn) [Compound 90] yielded an IC50 of 4240 nM.
`CC1=C(C(=O)OCCOC(=O)c2ccncc2)C(c2c(F)cccc2Cl)C2=C(CS(=O)(=O)CCS2(=O)=O)N1` (stereo not drawn) [Compound 78] gave an IC50 of 760 nM.
`CC1=C(C(=O)OCCC2CCOC2=O)C(c2c(F)cccc2Cl)C2=C(CS(=O)(=O)CCS2(=O)=O)N1` (stereo not drawn) [Compound 85] was tested, and the IC50 was 1690 nM.
For `CCC(CC)C(=O)OCCOC(=O)C1=C(C)NC2=C(C1c1c(F)cccc1Cl)S(=O)(=O)CCS(=O)(=O)C2` (stereo not drawn) [Compound 33], the IC50 was 13 nM.
With `CC1=C(C(=O)OCCNC(=O)OC(C)(C)C)C(c2c(F)cccc2Cl)C2=C(CS(=O)(=O)CCS2(=O)=O)N1` (stereo not drawn) [Compound 79, 5H-[1,4]dithiepino[6,5-b]pyridine-8-carboxylic acid, 9-(2-chloro-6-fluorophenyl)-2,3,6,9-tetrahydro-7-methyl-, 2-[[(1,1-dimethylethoxy)carbonyl]amino]ethyl ester, 1,1,4,4-tetraoxide] the IC50 was 768 nM.
`CC1=C(C(=O)OCCCOC(=O)C(C)C)C(c2c(F)cccc2Cl)C2=C(CS(=O)(=O)CCS2(=O)=O)N1` (stereo not drawn) [Compound 62] showed an IC50 of 176 nM.
`CC1=C(C(=O)OCCCO)C(c2c(F)cccc2Cl)C2=C(CS(=O)(=O)CCS2(=O)=O)N1` (stereo not drawn) [Compound 83] was tested, and the IC50 was 1210 nM.
With `CC1=C(C(=O)OCC(N)=O)C(c2c(F)cccc2Cl)C2=C(CS(=O)(=O)CCS2(=O)=O)N1` (stereo not drawn) [Compound 93] the IC50 was 6990 nM.
`CC1=C(C(=O)OCCNC(=O)c2ccccc2)C(c2c(F)cccc2Cl)C2=C(CS(=O)(=O)CCS2(=O)=O)N1` (stereo not drawn) [Compound 87] gave an IC50 of 2260 nM.
Work on `CC1=C(C(=O)OCCO)C(c2c(F)cccc2Cl)C2=C(CS(=O)(=O)CCS2(=O)=O)N1` (stereo not drawn) [Compound 82] yielded an IC50 of 1000 nM.
For `CC1=C(C(=O)OCCCCOC(=O)c2ccccc2)C(c2c(F)cccc2Cl)C2=C(CS(=O)(=O)CCS2(=O)=O)N1` (stereo not drawn) [Compound 49], the IC50 was 57 nM.
With `CC1=C(C(=O)OCCOC(=O)c2ccccc2)C(c2c(F)cccc2Cl)C2=C(CS(=O)(=O)CCS2(=O)=O)N1` (stereo not drawn) [Compound 51] the IC50 was 62 nM.
In the case of `CC1=C(C(=O)OCCOC(=O)c2ccc(OC(C)C)cc2)C(c2c(F)cccc2Cl)C2=C(CS(=O)(=O)CCS2(=O)=O)N1` (stereo not drawn) [Compound 35, 5H-[1,4]dithiepino[6,5-b]pyridine-8-carboxylic acid, 9-(2-chloro-6-fluorophenyl)-2,3,6,9-tetrahydro-7-methyl-, 2-[[4-(1-methylethoxy)benzoyl]oxy]ethyl ester, 1,1,4,4-tetraoxide], the IC50 is reported as 20 nM.
Work on `CC1=C(C(=O)OCC(=O)Oc2ccccc2)C(c2c(F)cccc2Cl)C2=C(CS(=O)(=O)CCS2(=O)=O)N1` (stereo not drawn) [Compound 67] yielded an IC50 of 336 nM.
`CC(=O)OCCOC(=O)C1=C(C)NC2=C(C1c1c(F)cccc1Cl)S(=O)(=O)CCS(=O)(=O)C2` (stereo not drawn) [Compound 80] gave an IC50 of 898 nM.
With `CC1=C(C(=O)OCCOC(=O)C(C)C)C(c2c(F)cccc2Cl)C2=C(CS(=O)(=O)CCS2(=O)=O)N1` (stereo not drawn) [Compound 57] the IC50 was 143 nM.
